Measurements as given in patent US20230310540A1, “PEPTIDE COMPOSITIONS AND METHODS OF USE THEREOF” (priority 2020, published 2023).
Converted amounts (≈) assume the structure as drawn. Square brackets hold non-standard residues; d marks the D form. Peptide text beside a SMILES is read from it. d(hArg) = N=C(N)NCCCC[C@@H](N)C(=O)O

Legend:
Assay type in all cases: cell-based
[1] = system: E. coli; conditions: for MIC in Broth Dilution, E. coli, RBC −: absence of RBC; for MIC in Broth Dilution, E. coli, RBC − / MIC in Broth Dilution, E. coli, RBC +: Table 3; for MIC, E. coli, No RBC / MIC, E. coli, 10^9 cells/ml RBC: Table 2; for MIC in Broth Dilution, E. coli, RBC +: presence of 1×10^9 human RBC/ml; for MIC, E. coli, 10^9 cells/ml RBC: with 10^9 human RBC/ml
Experimental: (§1) Peptide variants of D-CONGA (SEQ ID NO: 1) were tested for activity against E. coli, K. pneumoniae, and S. aureus. Minimum Inhibitory Concentrations (MIC) were measured in 96-well plates by broth dilution. Peptides were serially diluted in buffer or in buffer containing 1×10^9 human RBC/ml. Following 1 hr. incubation, bacteria in growth media were added and the plates were incubated overnight at 37° C. Sterilized, wells were identified to determine MIC. Hemolysis was measured by incubating 1×10^8 human RBCs with serially diluted peptide for 30 minutes followed by centrifugation of the cells and measurements of the released hemoglobin in the supernatant by absorbance at 410 nm. The value for 100% hemolysis was established by treatment with the detergent Triton-X100. Toxicity was measured by incubating serially diluted peptide with WI38 human fibroblast cells in the presence of SYTOX Green, a DNA binding dye that reports on cell death by membrane permeabilization. The peptide concentration that gives 50% cytotoxicity by relative SYTOX Green fluorescence, is denoted EC50.
(§2) Antimicrobial peptides and conventional antibiotics were prepared at 5-times the final concentration needed in 0.025% acetic acid. The antibiotics were serially diluted by a factor of 2:3 horizontally across 96-well plates from Corning, 25 μL per well. One column was reserved for controls. For the assays performed in the presence of RBC, type O+ human RBCs at 0 or 2.5×10^9 cells/mL were added in 50 μL aliquots to all wells. Following a 30-minute incubation, 50 μL of TSB, inoculated with 5×10^5 CFU/mL, was added to all wells, and plates were incubated overnight at 37° C. Following overnight incubation at 37° C., the OD600 was measured (values of less than 0.1 were considered sterilized). To assess bacterial growth in the assays with RBC, the OD600 was measured after a second day inoculation with 10 μL of solution from the original plate added to 100 μL of sterile TSB followed by overnight incubation.
(§3) MIC values were reported in μM peptide against gram-negative E. coli (EC), P. aeruginosa (PA), and gram-positive S. aureus (SA). The two columns under each organism are for assays performed in the absence (−) and presence (+) of 1×10^9 human RBC/ml. “>30” means that sterilization was not observed at 30 μM, the highest concentration tested. The column marked “hemolysis” is the fractional hemolysis of 1×10^8 human RBC/ml at 100 μM peptide determined from measurements of serially diluted peptide, starting from 100 μM. The column marked “EC 50” contains the concentration of peptide that kills 50% of WI-38 human fibroblast cells assayed by entry of SYTOX™ Green DNA binding dye.

[2] = system: S. aureus; conditions: for MIC in Broth Dilution, S. Aureus, RBC −: absence of RBC; for MIC in Broth Dilution, S. Aureus, RBC − / MIC in Broth Dilution, S. Aureus, RBC +: Table 3; for MIC, S. aureus, No RBC / MIC, S. aureus, 10^9 cells/ml RBC: Table 2; for MIC in Broth Dilution, S. Aureus, RBC +: presence of 1×10^9 human RBC/ml; for MIC, S. aureus, 10^9 cells/ml RBC: with 10^9 human RBC/ml
Experimental: as §1, §2, §3

[3] = system: human RBCs; test: Hemolysis of human RBCs
Experimental: as §1
Peptide was serially diluted in PBS starting at a concentration of 100 μM. The final volume of peptide in each well was 50 μL. To each well, 50 μL of RBCs in PBS at 2×10^8 cells/mL was added. As a positive lysis control, 1% triton was used. The mixtures were incubated at 37° C. for 1 hour, after which they were centrifuged at 1000 g for 5 minutes. After centrifugation, 10 μL of supernatant was transferred to 90 μL of DI H2O in a fresh 96-well plate. The absorbance of released hemoglobin at 410 nm was recorded and the fractional hemolysis was calculated based on the 100% and 0% lysis controls.
as §3

Structure (SMILES)	MIC in Broth Dilution, E. coli, RBC − [1] [µM]	MIC, E. coli, No RBC [1] [µM]	MIC in Broth Dilution, E. coli, RBC + [1] [µM]	MIC, E. coli, 10^9 cells/ml RBC [1] [μM]	MIC in Broth Dilution, S. Aureus, RBC − [2] [µM]	MIC, S. aureus, No RBC [2] [µM]	MIC in Broth Dilution, S. Aureus, RBC + [2] [µM]	MIC, S. aureus, 10^9 cells/ml RBC [2] [μM]	Hemolysis at 100 μM [3]
CC(C)C[C@@H](NC(=O)CNC(=O)[C@@H](CCCNC(=N)N)NC(=O)[C@@H](CCCNC(=N)N)NC(=O)[C@@H](C)NC(=O)[C@@H](Cc1c[nH]c2ccccc12)NC(=O)[C@@H](CCCNC(=N)N)NC(=O)[C@H](N)CCCNC(=N)N)C(=O)N[C@H](C)C(=O)N[C@H](Cc1ccccc1)C(=O)N[C@H](C)C(=O)N[C@H](Cc1ccccc1)C(=O)N[C@H](CCCNC(=N)N)C(=O)N[C@H](CCCNC(=N)N)C(N)=O [D-CONGA-G7, rrwarrglafafrr (All D)] (H-[dR][dR][dW][dA][dR][dR]G[dL][dA][dF][dA][dF][dR][dR]-NH2)	1.3 (≈ 2.36 µg/mL)	1.3 (≈ 2.36 µg/mL)	1.4	1.4	6.4 (≈ 11.6 µg/mL)	6.4 (≈ 11.6 µg/mL)	6.9	6.9	0.07
CC(C)C[C@@H](NC(=O)[C@@H](CCCCNC(=N)N)NC(=O)[C@@H](CCCCNC(=N)N)NC(=O)[C@@H](C)NC(=O)[C@@H](Cc1c[nH]c2ccccc12)NC(=O)[C@@H](CCCNC(=N)N)NC(=O)[C@H](N)CCCNC(=N)N)C(=O)N[C@H](C)C(=O)N[C@H](Cc1ccccc1)C(=O)N[C@H](C)C(=O)N[C@H](Cc1ccccc1)C(=O)N[C@H](CCCNC(=N)N)C(=O)N[C@H](CCCNC(=N)N)C(N)=O [D-CONGA-HomoR, rrwa (homo r, homo r)lafafrr] (H-[dR][dR][dW][dA][d(hArg)][d(hArg)][dL][dA][dF][dA][dF][dR][dR]-NH2)	1.3 (≈ 2.33 µg/mL)	1.3 (≈ 2.33 µg/mL)	2.2	2.2	1.7 (≈ 3.04 µg/mL)	1.7 (≈ 3.04 µg/mL)	2.5	2.5	0.06
CC(C)C[C@@H](NC(=O)[C@@H](CCCNC(=N)N)NC(=O)[C@H](CCCNC(=N)N)NC(=O)[C@@H](C)NC(=O)[C@@H](Cc1c[nH]c2ccccc12)NC(=O)[C@@H](CCCNC(=N)N)NC(=O)[C@H](N)CCCNC(=N)N)C(=O)N[C@H](C)C(=O)N[C@H](Cc1ccccc1)C(=O)N[C@@H](C)C(=O)N[C@H](Cc1ccccc1)C(=O)N[C@H](CCCNC(=N)N)C(=O)N[C@H](CCCNC(=N)N)C(N)=O [D-CONGA-L(R5, A10), rrwaRrlafAfrr] (H-[dR][dR][dW][dA]R[dR][dL][dA][dF]A[dF][dR][dR]-NH2)	1.4 (≈ 2.47 µg/mL)	1.4 (≈ 2.47 µg/mL)	1.4	1.4	>30	30 (≈ 52.8 µg/mL)	>30	30	0.04
CC(C)C[C@@H](NC(=O)[C@@H](CCCNC(=N)N)NC(=O)[C@@H](CCCNC(=N)N)NC(=O)[C@@H](Cc1c[nH]c2ccccc12)NC(=O)[C@@H](CCCNC(=N)N)NC(=O)[C@H](N)CCCNC(=N)N)C(=O)N[C@H](C)C(=O)N[C@H](Cc1ccccc1)C(=O)N[C@H](C)C(=O)N[C@H](Cc1ccccc1)C(=O)N[C@H](CCCNC(=N)N)C(=O)N[C@H](CCCNC(=N)N)C(N)=O [D-CONGA-ΔA4, rrwrrlafafrr (All D)] (H-[dR][dR][dW][dR][dR][dL][dA][dF][dA][dF][dR][dR]-NH2)	1.6 (≈ 2.7 µg/mL)	1.6 (≈ 2.7 µg/mL)	2.8	2.8	3.2 (≈ 5.41 µg/mL)	3.2 (≈ 5.41 µg/mL)	2.3	2.3	0.02
CC(C)C[C@H](NC(=O)[C@H](CCCNC(=N)N)NC(=O)[C@H](CCCNC(=N)N)NC(=O)[C@H](C)NC(=O)[C@H](Cc1c[nH]c2ccccc12)NC(=O)[C@H](CCCNC(=N)N)NC(=O)[C@H](N)CCCNC(=N)N)C(=O)N[C@@H](C)C(=O)N[C@@H](Cc1ccccc1)C(=O)N[C@@H](C)C(=O)N[C@@H](Cc1ccccc1)C(=O)N[C@@H](CCCNC(=N)N)C(=O)N[C@H](CCCNC(=N)N)C(N)=O [L-CONGA-D(R1, R13)] (H-[dR]RWARRLAFAFR[dR]-NH2)	20 (≈ 35.2 µg/mL)	20 (≈ 35.2 µg/mL)	26.2	26.2	>30	30 (≈ 52.8 µg/mL)	>30	30	0.01
CC(C)C[C@@H](NC(=O)[C@@H](CCCNC(=N)N)NC(=O)[C@@H](CCCNC(=N)N)NC(=O)[C@@H](C)NC(=O)[C@@H](Cc1c[nH]c2ccccc12)NC(=O)[C@@H](CCCNC(=N)N)NC(=O)[C@H](N)CCCNC(=N)N)C(=O)N[C@H](C)C(=O)N[C@H](Cc1ccccc1)C(=O)N[C@H](C)C(=O)N[C@H](Cc1ccccc1)C(=O)N[C@H](CCCNC(=N)N)C(N)=O [D-CONGA-ΔR13, rrwarrlafafr (All D)] (H-[dR][dR][dW][dA][dR][dR][dL][dA][dF][dA][dF][dR]-NH2)	0.9 (≈ 1.44 µg/mL)	0.9 (≈ 1.44 µg/mL)	0.6	0.6	27.1 (≈ 43.5 µg/mL)	27 (≈ 43.3 µg/mL)	>30	30	0.03
CC(C)C[C@@H](NC(=O)[C@@H](CCCNC(=N)N)NC(=O)[C@@H](CCCNC(=N)N)NC(=O)[C@@H](C)NC(=O)[C@@H](Cc1c[nH]c2ccccc12)NC(=O)[C@@H](CCCNC(=N)N)NC(=O)[C@H](N)CCCNC(=N)N)C(=O)N[C@H](C)C(=O)N[C@H](Cc1ccccc1)C(=O)N[C@H](Cc1ccccc1)C(=O)N[C@H](CCCNC(=N)N)C(=O)N[C@H](CCCNC(=N)N)C(N)=O [D-CONGA-ΔA10, rrwarrlaffrr (All D)] (H-[dR][dR][dW][dA][dR][dR][dL][dA][dF][dF][dR][dR]-NH2)	0.7 (≈ 1.18 µg/mL)	0.7 (≈ 1.18 µg/mL)	1.3	1.3	23.5 (≈ 39.7 µg/mL)	24 (≈ 40.6 µg/mL)	19	19	0.02
CC(C)C[C@@H](NC(=O)[C@@H](CCCNC(=N)N)NC(=O)[C@H](N)CCCNC(=N)N)C(=O)N[C@H](C)C(=O)N[C@H](Cc1ccccc1)C(=O)N[C@H](C)C(=O)N[C@H](Cc1ccccc1)C(=O)N[C@H](Cc1c[nH]c2ccccc12)C(=O)N[C@H](C)C(=O)N[C@H](CCCNC(=N)N)C(=O)N[C@H](CCCNC(=N)N)C(=O)N[C@H](CCCNC(=N)N)C(=O)N[C@H](CCCNC(=N)N)C(N)=O [D-CONGA-FLIP, rrlafafwarrrr (All D)] (H-[dR][dR][dL][dA][dF][dA][dF][dW][dA][dR][dR][dR][dR]-NH2)	1 (≈ 1.76 µg/mL)	1 (≈ 1.76 µg/mL)	1.5	1.5	1.7 (≈ 2.99 µg/mL)	1.7 (≈ 2.99 µg/mL)	3.7	3.7	0.05
